A short description of experiment [1]: carrageenin-induced edema in the hind paw of the rat (modified Winter et al.). The format is in vivo. As to conditions: Rattus norvegicus, po, 3 h, 3 h. Here is the method: (§1) The procedure used for measuring the inhibition of carrageenin-induced edema is a slight modification of the method of Winter et al., Proc. Soc. Explt. Biol. Med. 111: 544 (1962). The device used for measurement of the paw volume is an adaptation of the water displacement procedure described by Adamkiewicz et al., Can. J. Biochem. Physiol. 33: 332 (1955). The above compounds were studied for their effectiveness in preventing the edema caused by the intraplantar injection of 0.05 ml of a sterile 1.0% solution of carrageenin. Compounds were administered orally, except when indicated as intraperitoneally (i.p.), one hour prior to the injection of the carrageenin into the left hind paw of rats. At peak swelling time (3 hours) the volume of edema was calculated by differential paw volumes.
Table I (in which Ph=phenyl) sets forth results obtained at the indicated dosages with compounds (or their salts) of the formula [drawing 8]
Following the procedure set forth in Example 4, hydrated compounds according to the following formula were evaluated for antiinflammatory effect with the results shown in Table II: [drawing 9]
Certain of the compounds of the invention were further tested to determine their ED50 values. […] Typical results of these tests appear in Table III.
For orientation: In the carrageenan paw model, swelling and tenderness develop within hours.

Experiment [2] can be described thus: adrenalectomized assay (carrageenin edema in adrenalectomized rats). Type of experiment: in vivo, Adrenalectomized Sprague Dawley Male Rats. As to conditions: Rattus norvegicus, po, 3 h; 25 mg/kg; read-out: % Reduction (adrenalectomized rats). Here is the method:
as §1
Next, certain of the compounds were subjected to a secondary screen designated the adrenalectomized assay. In this series of tests, the method used was identical to that described above, except that the animals used were adrenalectomized several days prior to assay. Since the results in the nonadrenalectomized animals were similar to those obtained in the adrenalectromized animals, it can be inferred that the antiinflammatory activity of the test compounds was not caused by the release of endogeneous adrenocortical steriods.

Experiment [3] in a line: adjuvant-induced arthritis test (Newbould). Type of experiment: in vivo, rat. The source says: Selected compounds were further subjected to advanced evaluations. Specifically, in view of the interesting activity of compounds 1 and 9, those compounds were further subjected to the adjuvant-induced arthritis test. This test requires one month (from day 0 to day 31). In the first seventeen days (0-17), the disease is in a developing stage, while for the remainder of the month (18-31) the disease is fully developed.
The method is essentially that of Newbould, Brit. J. Pharmacol. 21: 127, 1963. The test compounds were studied in the developing arthritis state and in the established arthritic state. Separate groups of twelve rats were administered the compounds orally using methylcellulose as the vehicle. In the study on the developing disease, administration of the test compounds begins on day 1 and on day 2 each animal is injected with 0.05 ml/kg of a 0.5% suspension of heat-killed Mycobacterium tuberculosis into the planter surface of the left hind paw. Foot volumes were measured by a water displacement device on the day of administration of the Mycobacterium and again on days 3, 10 and 17. The test compounds were administered once daily. Body weights were recorded daily and the animals were examined for the spread of the inflammation and the degree of secondary lesions. For study in the established disease, another group of rats are injected with the Mycobacterium and foot volumes are measured. After twenty days volumes are again measured and administration of the test compounds begins and continues for eleven days. Foot volume measurements are repeated on day 27 and day 31. The extent of the spread of the inflammation and the degree of lesions are recorded daily as are the body weights. The effect of the test compounds is measured by the percentage reduction in left hind paw volumes as compared to the hind paw volumes of the control groups.

The structures appear in SMILES notation.

`CC1=CSC2=NCCN12` [Compound 9]: the inhibition in vivo at 50 mg/kg in experiment [1] (Table I, 50 mg/kg, oral, 1 h before carrageenin, read-out: Reduction % (carrageenin edema)) came out at 46%. Further, the ED50 in experiment [1] (dose which reduced edema formation by about 25% or more vs mean control in 50% of the animals) stood at 20 mg/kg. For the same compound, in experiment [2], the inhibition in vivo at 25 mg/kg worked out at 46%. For the same compound, the “% reduction in swelling, hind paws” value in experiment [3] (24 mg/kg, day 3, developing (prophylactic)) is recorded as 21%; in experiment [3] (24 mg/kg, day 10, developing (prophylactic)), 23%; in experiment [3] (24 mg/kg, day 17, developing (prophylactic)), 15%; in experiment [3] (24 mg/kg, day 20, developed (therapeutic)) it was 5%; in experiment [3] (24 mg/kg, day 27, developed (therapeutic)) it was 0%; in experiment [3] (24 mg/kg, day 31, developed (therapeutic)), 0%. Also, the “% reduction in swelling, hind paws” value is recorded as 18% in experiment [3] (50 mg/kg, day 3, developing (prophylactic)); 17% in experiment [3] (50 mg/kg, day 10, developing (prophylactic)); 6% in experiment [3] (50 mg/kg, day 17, developing (prophylactic)); 3% in experiment [3] (50 mg/kg, day 20, developed (therapeutic)); 3% in experiment [3] (50 mg/kg, day 27, developed (therapeutic)); 7% in experiment [3] (50 mg/kg, day 31, developed (therapeutic)).

For orientation: ED50 means the dose that gives a 50% effect, or the effect in half of the subjects.
